Measurements taken from patent US20260374739A1, “SMALL MOLECULAR WEIGHT CHEMICAL COMPOUND TO ANTAGONIZE EPH-EPHRIN TETRAMERIZATION AND INHIBIT BIDIRECTIONAL SIGNALING” (THE BOARD OF REGENTS OF THE UNIVERSITY OF TEXAS SYSTEM, priority 2022, published 2026).
“And” between values parts separate entries of the source, which are not always exact repeats. Equal values may be shown once. “Also recorded” adds a separate entry of the source. Read-outs that look alike come from different tables or passages of the source. Marks after values point to notes of the source that are not given here.

Key:
EphrinB2-EphB4 = molecular target: T1, EphrinB2-EphB4 (Homo sapiens, UniProt P54760); assay: Octet 80 sec association/500 sec dissociation, immobilized human EphrinB2-Fc binding to soluble human EphB4-His; conditions: for inhibition at 3.2 µM: 25 nM EphB4, 3.2 μM compound, A20-I as max control, 0* = less than 0, no inhibition; for EphB4 Inhibition Percent, Inhibition of Association ONLY: at 3.2 μM and 80 seconds; for EphB4 Inhibition Percent, Inhibition of Association ONLY / EphB4 Inhibition Percent, Inhibition of Association-Dissociation: immobilized human EphrinB2, 25 nM soluble human EphB4; for EphB4 Inhibition Percent, Inhibition of Association-Dissociation: at 3.2 μM and 580 seconds
T1 construct: soluble human EphB1-His, EphB2-His, and EphB4-His ectodomains; commercially available human EphrinB1-Fc (EB1), EphrinB2-Fc (EB2), and EphrinB3-Fc (EB3) ectodomain proteins; purchased
T1 sequence (P54760 16-539 limits assumed): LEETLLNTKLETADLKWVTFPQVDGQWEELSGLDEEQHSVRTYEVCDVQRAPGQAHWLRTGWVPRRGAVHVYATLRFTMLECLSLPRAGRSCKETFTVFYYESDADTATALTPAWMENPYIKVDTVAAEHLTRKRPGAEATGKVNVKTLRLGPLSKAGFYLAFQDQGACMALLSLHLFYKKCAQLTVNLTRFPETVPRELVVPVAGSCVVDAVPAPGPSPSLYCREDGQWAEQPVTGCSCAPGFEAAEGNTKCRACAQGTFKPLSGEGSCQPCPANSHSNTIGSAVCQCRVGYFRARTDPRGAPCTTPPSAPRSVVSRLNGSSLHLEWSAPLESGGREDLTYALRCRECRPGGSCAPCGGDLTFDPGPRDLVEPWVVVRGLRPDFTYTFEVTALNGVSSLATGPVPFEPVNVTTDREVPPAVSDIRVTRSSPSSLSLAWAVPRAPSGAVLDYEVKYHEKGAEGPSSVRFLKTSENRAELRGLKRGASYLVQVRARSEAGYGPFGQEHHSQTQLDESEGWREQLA
Method in brief: (§1)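 EphrinB2-Fc captured on AHC biosensors, then soluble His-tagged EphB ectodomain (25 nM for % inhibition runs) associated 80 s and dissociated 500 s in PBS, 0.05% Tween-20, 1% DMSO ± compound. Compounds tested at 0.1–3.2 μM with a 10 μM max standard; IC50 from AUC of full traces or at 75 s and 135 s.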

EphrinB2-EphB2 = molecular target: T2, EphrinB2-EphB2 (Homo sapiens, UniProt P29323); assay: Octet 80 sec association/500 sec dissociation, immobilized human EphrinB2-Fc binding to soluble human EphB2-His; conditions: for EphB2 Inhibition Percent, Inhibition of Association ONLY: at 3.2 μM and 80 seconds; for EphB2 Inhibition Percent, Inhibition of Association ONLY / EphB2 Inhibition Percent, Inhibition of Association-Dissociation: immobilized human EphrinB2, 25 nM soluble human EphB2; for EphB2 Inhibition Percent, Inhibition of Association-Dissociation: at 3.2 μM and 580 seconds
T2 construct: soluble human EphB1-His, EphB2-His, and EphB4-His ectodomains; commercially available human EphrinB1-Fc (EB1), EphrinB2-Fc (EB2), and EphrinB3-Fc (EB3) ectodomain proteins; purchased
T2 sequence (P29323 19-543 limits assumed): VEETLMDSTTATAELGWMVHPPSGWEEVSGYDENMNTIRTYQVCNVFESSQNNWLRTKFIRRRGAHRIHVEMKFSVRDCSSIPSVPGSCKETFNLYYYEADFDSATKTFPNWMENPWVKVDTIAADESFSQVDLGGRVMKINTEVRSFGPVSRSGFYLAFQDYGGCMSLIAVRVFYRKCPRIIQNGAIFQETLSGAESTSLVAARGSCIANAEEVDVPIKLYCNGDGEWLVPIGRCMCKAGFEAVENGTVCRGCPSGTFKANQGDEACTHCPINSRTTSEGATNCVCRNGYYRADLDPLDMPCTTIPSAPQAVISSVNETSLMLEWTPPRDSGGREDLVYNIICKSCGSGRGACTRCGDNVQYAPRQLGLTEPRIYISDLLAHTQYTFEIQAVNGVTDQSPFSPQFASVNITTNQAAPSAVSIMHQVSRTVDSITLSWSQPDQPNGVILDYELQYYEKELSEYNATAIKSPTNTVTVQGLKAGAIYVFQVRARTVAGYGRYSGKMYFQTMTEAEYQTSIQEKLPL
Method in brief: as §1

[1] = EphB4, read-out: % Inhibition: Association + Dissociation (160 sec)
[2] = EphB2, 25 nM EphB2, 3.2 μM compound, A20-I as max control, 0* = less than 0, no inhibition
[3] = EphB2, 25 nM EphB2, 3.2 μM compound, A20-I as max control, 0* = less than 0, no inhibition, read-out: % Inhibition: Association + Dissociation (160 sec)
[4] = EphB2, 25 nM EphB2, 3.2 μM compound, A20-I as max control, 0* = less than 0, no inhibition, read-out: % Inhibition: Association ONLY (80 sec)
[5] = EphB4, read-out: % Inhibition: Association ONLY (80 sec)

Oc1c(I)cc(CN2CCOCC2)c2cccnc12 [Compound 7, 7-iodo-5-(morpholinomethyl)quinolin-8-ol]
% Inhibited (AUC), Association + Dissociation (EphrinB2-EphB4; EphB4, 0-160 sec, 50 nM, 10 μM compound, Table 4): 26.5% | inhibition at 3.2 µM (EphrinB2-EphB4; [1]): 32.9% | % Inhibited (AUC), Association (EphrinB2-EphB4; EphB4, 50 nM, 10 μM compound, Table 4): 13.3% | inhibition (EphrinB2-EphB4; EphB4, 10 μM 2×HCl salt, read-out: % Inhibited (AUC), Association): 13.9% | IC50 (EphrinB2-EphB4; EphB4, Association (75″), read-out: Absolute IC50): > 3200 nM | IC50 (EphrinB2-EphB4; EphB4, Association (75″), read-out: Relative IC50): 1700 nM | IC50 (EphrinB2-EphB4; EphB4, Association (AUC), read-out: Absolute IC50): > 3200 nM | IC50 (EphrinB2-EphB4; EphB4, Association (AUC), read-out: Relative IC50): 1660 nM | IC50 (EphrinB2-EphB4; EphB4, Dissociation (135″), read-out: Absolute IC50): 3020 nM | IC50 (EphrinB2-EphB4; EphB4, Dissociation (135″), read-out: Relative IC50): 980 nM | IC50 (EphrinB2-EphB4; EphB4, Full AUC, read-out: Absolute IC50): 1260 nM | IC50 (EphrinB2-EphB4; EphB4, Full AUC, read-out: Relative IC50): 890 nM | inhibition (EphrinB2-EphB4; EphB4, first 160 sec, 10 μM 2×HCl salt, read-out: % Inhibited (AUC), Association + Dissociation): 33.9% | inhibition (EphrinB2-EphB4; EphB4, highest dose, typically 3.2 μM, read-out: Association (% Inhibited (AUC))): 15.4% | inhibition (EphrinB2-EphB4; EphB4, highest dose, typically 3.2 μM, read-out: Association + Dissociation (% Inhibited (AUC))): 37% | % Inhibition: Association + Dissociation (160 sec) (EphrinB2-EphB2; [2]): 80.6% and 77.6% and 74.3% | % Inhibition: Association ONLY (80 sec) (EphrinB2-EphB2; [2]): 66.1% and 61.2% and 56.7% | inhibition at 3.2 µM (EphrinB2-EphB2; [3]): 75.3% | inhibition at 3.2 µM (EphrinB2-EphB2; [4]): 59.6% | inhibition (EphrinB2-EphB2; EphB2, 10 μM 2×HCl salt, read-out: % Inhibited (AUC), Association): 61.8% | IC50 (EphrinB2-EphB2; EphB2, Association (75″), read-out: Absolute IC50): 1660 nM | IC50 (EphrinB2-EphB2; EphB2, Association (75″), read-out: Relative IC50): 1200 nM | IC50 (EphrinB2-EphB2; EphB2, Association (AUC), read-out: Absolute IC50): 2240 nM | IC50 (EphrinB2-EphB2; EphB2, Association (AUC), read-out: Relative IC50): 1150 nM | IC50 (EphrinB2-EphB2; EphB2, Dissociation (135″), read-out: Absolute IC50): 410 nM | IC50 (EphrinB2-EphB2; EphB2, Dissociation (135″), read-out: Relative IC50): 340 nM | IC50 (EphrinB2-EphB2; EphB2, Full AUC, read-out: Absolute IC50): 240 nM | IC50 (EphrinB2-EphB2; EphB2, Full AUC, read-out: Relative IC50): 190 nM | inhibition (EphrinB2-EphB2; EphB2, first 160 sec, 10 μM 2×HCl salt, read-out: % Inhibited (AUC), Association + Dissociation): 76.5% | inhibition (EphrinB2-EphB2; EphB2, highest dose, typically 3.2 μM, read-out: Association (% Inhibited (AUC))): 56.4% | inhibition (EphrinB2-EphB2; EphB2, highest dose, typically 3.2 μM, read-out: Association + Dissociation (% Inhibited (AUC))): 74.7%

O=C(Cc1ccccc1)Nc1ccc(N2CCN(Cc3ccc(O)c4ncccc34)CC2)cc1 [Compound 51, N-(4-(4-((8-hydroxyquinolin-5-yl)methyl)piperazin-1-yl)phenyl)-2-phenylacetamide]
inhibition at 3.2 µM (EphrinB2-EphB4; [1]): 37.2% | inhibition at 3.2 µM (EphrinB2-EphB4; [5]): 18.1% | inhibition at 3.2 µM (EphrinB2-EphB2; [3]): 78.8% | inhibition at 3.2 µM (EphrinB2-EphB2; [4]): 64.8%

O=S1(=O)CCN(Cc2ccc(O)c3ncccc23)CC1 [Compound 15, 4-((8-hydroxyquinolin-1-ium-5-yl)methyl)thiomorpholin-4-ium 1,1-dioxide chloride]
EphB4 Inhibition Percent, Inhibition of Association ONLY (EphrinB2-EphB4): 10.8% | EphB4 Inhibition Percent, Inhibition of Association-Dissociation (EphrinB2-EphB4): 19.0% | EphB2 Inhibition Percent, Inhibition of Association ONLY (EphrinB2-EphB2): 33.8% | EphB2 Inhibition Percent, Inhibition of Association-Dissociation (EphrinB2-EphB2): 46.4%

Oc1ccc(CN2CCN(c3ccc(F)cc3F)CC2)c2cccnc12 [Compound 62, 5-((4-(2,4-difluorophenyl)piperazin-1-yl)methyl)quinolin-8-ol]
EphB4 Inhibition Percent, Inhibition of Association ONLY (EphrinB2-EphB4): 5.0% | EphB4 Inhibition Percent, Inhibition of Association-Dissociation (EphrinB2-EphB4): 0*% | EphB2 Inhibition Percent, Inhibition of Association ONLY (EphrinB2-EphB2): 0*% | EphB2 Inhibition Percent, Inhibition of Association-Dissociation (EphrinB2-EphB2): 0*%

COc1ccccc1N1CCN(Cc2cc(Br)c(O)c3ncccc23)CC1 [Compound 70, 7-bromo-5-((4-(2-methoxyphenyl)piperazin-1-yl)methyl)quinolin-8-ol]
inhibition at 3.2 µM (EphrinB2-EphB4; [1]): 36.3% | inhibition at 3.2 µM (EphrinB2-EphB4; [5]): 15.1% | inhibition at 3.2 µM (EphrinB2-EphB2; [3]): 73% | inhibition at 3.2 µM (EphrinB2-EphB2; [4]): 53.4%

Oc1c(Br)cc(CN2CCOCC2)c2cccnc12 [Compound 5, 7-bromo-5-(morpholinomethyl)quinolin-8-ol]
inhibition at 3.2 µM (EphrinB2-EphB4; [1]): 23% | inhibition at 3.2 µM (EphrinB2-EphB4; [5]): 0% | inhibition at 3.2 µM (EphrinB2-EphB2; [3]): 75.7% | inhibition at 3.2 µM (EphrinB2-EphB2; [4]): 55.4%

O=[N+]([O-])c1cc(CN2CCS(=O)(=O)CC2)c2cccnc2c1O [Compound 20, 4-((8-hydroxy-7-nitroquinolin-5-yl)methyl)thiomorpholine 1,1-dioxide]
selectivity among EphrinB2-EphB1/B2/B4 (EphrinB2-EphB4; 3.2 μM, listed as QTM-NO2): ability to selectively inhibit EphrinB2-EphB2 and EphrinB2-EphB1 interactions, while sparing the EphrinB2-EphB4 interaction; also recorded: less action towards EphB4 but high specificity for EphB1 and EphB2 | inhibition at 3.2 µM (EphrinB2-EphB4; [1]): 0% | inhibition at 3.2 µM (EphrinB2-EphB4; [5]): 0% | inhibition at 3.2 µM (EphrinB2-EphB2; [3]): 51.7% | inhibition at 3.2 µM (EphrinB2-EphB2; [4]): 36.7% | inhibition of EphB2-EphrinB2 binding (EphrinB2-EphB2; association step, general): 40%
